Values joined by “and” are separate entries in the source; they are usually repeats but may differ in a detail not shown here. Equal values may be shown once.
Columns and labels:
[1] = tested on: neonatal rat ventricular cardiomyocytes (NVCM); test: Protection against DAU-induced cytotoxicity (LDH release) in NVCM; type: cell-based; set-up: key to Suppl.Fig.3 DAU-induced cytotoxicity (LDH release) in NVCM, mean of independent replicates / LDH release (DAU-induced cytotoxicity), mean of independent replicates: % of total LDH activity
In short: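 Primary neonatal Wistar rat cardiomyocytes in serum- and pyruvate-free DMEM/F12 were pretreated with compound 3 h, then co-incubated 3 h with DAU (1.2 µM), or without DAU for inherent toxicity, then given a 48 h drug-free follow-up. Medium LDH activity (NAD+ reduction at 340 nm) expressed as % of total LDH.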

recombinant human TOP2A = target: T1, recombinant human TOP2A (Homo sapiens, UniProt P11388); test: In vitro ATPase activity of TOP2A (coupled assay); type: biochemical
T1 construct: Using recombinant full-length human TOP2A and TOP2B enzymes; YFP (N, cleaved yes); made in house; host or cells: HEK293F
T1 sequence (P11388 whole entry): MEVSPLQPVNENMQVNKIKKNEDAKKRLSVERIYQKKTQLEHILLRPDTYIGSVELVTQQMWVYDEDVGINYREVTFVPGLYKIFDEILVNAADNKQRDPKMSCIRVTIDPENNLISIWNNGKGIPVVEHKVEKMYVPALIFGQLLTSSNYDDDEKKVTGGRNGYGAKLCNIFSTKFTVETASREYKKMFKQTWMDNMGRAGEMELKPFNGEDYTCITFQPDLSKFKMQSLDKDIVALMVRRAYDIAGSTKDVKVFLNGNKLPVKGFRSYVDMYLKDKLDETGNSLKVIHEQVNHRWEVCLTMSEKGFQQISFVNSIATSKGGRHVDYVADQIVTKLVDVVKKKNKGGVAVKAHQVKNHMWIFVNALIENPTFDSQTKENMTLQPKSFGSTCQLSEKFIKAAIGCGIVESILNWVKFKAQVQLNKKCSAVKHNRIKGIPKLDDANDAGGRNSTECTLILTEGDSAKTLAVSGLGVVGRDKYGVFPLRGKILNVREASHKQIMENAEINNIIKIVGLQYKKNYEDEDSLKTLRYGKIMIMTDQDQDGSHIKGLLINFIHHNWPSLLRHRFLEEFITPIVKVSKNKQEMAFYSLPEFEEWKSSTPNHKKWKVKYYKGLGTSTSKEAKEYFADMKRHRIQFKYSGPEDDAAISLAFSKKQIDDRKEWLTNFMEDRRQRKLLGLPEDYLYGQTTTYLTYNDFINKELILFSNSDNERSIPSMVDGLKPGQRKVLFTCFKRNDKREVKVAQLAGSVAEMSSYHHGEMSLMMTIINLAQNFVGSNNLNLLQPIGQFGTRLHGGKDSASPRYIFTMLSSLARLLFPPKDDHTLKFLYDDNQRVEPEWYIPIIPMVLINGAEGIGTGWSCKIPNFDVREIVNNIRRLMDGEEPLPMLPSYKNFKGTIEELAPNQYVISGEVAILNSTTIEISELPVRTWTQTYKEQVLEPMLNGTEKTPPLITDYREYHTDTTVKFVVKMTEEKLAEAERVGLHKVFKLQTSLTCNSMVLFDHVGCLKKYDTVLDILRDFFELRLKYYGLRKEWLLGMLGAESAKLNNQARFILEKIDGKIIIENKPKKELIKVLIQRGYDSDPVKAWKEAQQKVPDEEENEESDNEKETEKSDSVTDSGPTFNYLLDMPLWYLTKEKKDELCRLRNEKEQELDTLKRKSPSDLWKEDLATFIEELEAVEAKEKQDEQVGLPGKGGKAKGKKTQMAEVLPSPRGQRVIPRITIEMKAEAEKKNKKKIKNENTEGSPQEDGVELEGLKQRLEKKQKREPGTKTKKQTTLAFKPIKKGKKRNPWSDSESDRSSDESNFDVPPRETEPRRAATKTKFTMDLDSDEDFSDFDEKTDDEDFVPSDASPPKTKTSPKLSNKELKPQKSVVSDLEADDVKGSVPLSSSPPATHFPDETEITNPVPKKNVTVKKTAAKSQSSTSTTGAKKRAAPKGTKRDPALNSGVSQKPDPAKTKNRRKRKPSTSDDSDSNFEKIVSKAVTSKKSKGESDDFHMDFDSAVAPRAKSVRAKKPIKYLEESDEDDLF
Experimental: Topoisomerase proteins were diluted to 500 nM in storage buffer containing 20 mM HEPES pH 7.5, 500 mM NaCl, 0.5 mM TCEP, 25% glycerol, and 0.2 mg/mL BSA prior to use. A coupled assay was used to measure TOP2-catalyzed ATP hydrolysis in vitro[37] in Costar 96-well plates (Corning Incorporated). […] Reaction plates were pre-warmed to 30 °C for 5 min and ATP was added last to initiate the reaction. The reaction plate was placed in a CLARIOstarPlus plate reader (BMG Labtech) to measure NADH fluorescence at 30 °C every 30 s over 120 cycles using a 340-60 excitation filter and a 480-100 emission filter. Background fluorescence signals calculated from wells containing no ATP were subtracted from each measurement. The slope of NADH fluorescence decay in each well was calculated using the MARS software (BMG Labtech) and reaction wells that lacked topoisomerase inhibitor to account for photobleaching of NADH fluorescence served as background subtraction. Each presented data point was obtained from distinct sample. Values were normalized to untreated controls and plotted as a function of inhibitor concentration to determine IC50 values using Prism 9 (GraphPad).

| SMILES | LDH release, mean ([1]; DAU 1.2 µM alone, 48 h) | LDH release ([1]; DAU 1.2 µM alone, 48 h, independent replicates) | LDH release (DAU-induced cytotoxicity), mean of independent replicates ([1]; DAU 1.2 µM alone, NVCM, Suppl.Fig.6b) | LDH release (DAU-induced cytotoxicity), mean of independent replicates ([1]; DAU 1.2 µM alone, NVCM, Suppl.Fig.8a) | Suppl.Fig.3 DAU-induced cytotoxicity (LDH release) in NVCM, mean of independent replicates ([1]; DAU 1.2 µM alone, one value per experiment set (compound block)) | remaining activity at 0.125 µM (recombinant human TOP2A; 0.125 μM, independent replicates, read-out: Normalized % TOP2A activity, ATPase) | remaining activity at 0.25 µM (recombinant human TOP2A; 0.25 μM, independent replicates, read-out: Normalized % TOP2A activity, ATPase) | remaining activity at 1 µM (recombinant human TOP2A; 1 μM, independent replicates, read-out: Normalized % TOP2A activity, ATPase) | remaining activity at 4 µM (recombinant human TOP2A; 4 μM, independent replicates, read-out: Normalized % TOP2A activity, ATPase) | remaining activity at 8 µM (recombinant human TOP2A; 8 μM, independent replicates, read-out: Normalized % TOP2A activity, ATPase) | remaining activity at 16 µM (recombinant human TOP2A; 16 μM, independent replicates, read-out: Normalized % TOP2A activity, ATPase) | IC50 (recombinant human TOP2A; n=3) | concentration needed for similar extent of protection, relative to topobexin (9) ([1]; NVCM) | LDH release (protection against DAU), mean of independent replicates ([1]; compound 0.1 µM + DAU 1.2 µM, NVCM, Suppl.Fig.8a) | LDH release (protection against DAU), mean of independent replicates ([1]; compound 1 µM + DAU 1.2 µM, NVCM, Suppl.Fig.8a) | LDH release (protection against DAU), mean of independent replicates ([1]; compound 10 µM + DAU 1.2 µM, NVCM, Suppl.Fig.8a) | LDH release (protection against DAU), mean of independent replicates ([1]; compound 100 µM + DAU 1.2 µM, NVCM, Suppl.Fig.8a) |
| --- | --- | --- | --- | --- | --- | --- | --- | --- | --- | --- | --- | --- | --- | --- | --- | --- | --- |
| COc1cccc2c1C(=O)c1c(O)c3c(c(O)c1C2=O)C[C@@](O)(C(C)=O)C[C@@H]3O[C@H]1C[C@H](N)[C@H](O)[C@H](C)O1 [DAU, daunorubicin, reference compound] | 50.9581 % of total LDH and 40.9598 % of total LDH and 38.3367 % of total LDH | 42.9177 % of total LDH and 49.9715 % of total LDH and 51.9004 % of total LDH and 59.0427 % of total LDH and 48.4333 % of total LDH and 43.9079 % of total LDH and 36.1066 % of total LDH and 35.3914 % of total LDH and 37.5065 % of total LDH and 36.8503 % of total LDH and 39.0464 % of total LDH and 39.9436 % of total LDH | 49.0741 and 44.6225 and 40.9598 and 43.4866 | 50.2853 | 52.5555 and 50.9581 and 43.2031 and 52.6717 and 39.8455 and 40.6658 and 38.8384 and 49.4177 and 40.4688 and 38.0883 and 38.3367 and 37.1578 and 50.485 and 47.9698 and 52.8733 and 52.0892 and 42.039 and 50.4287 |  |  |  |  |  |  |  |  |  |  |  |  |
| C[C@@H](CN1CC(=O)NC(=O)C1)N1CC(=O)NC(=O)C1 [dexrazoxane] |  |  |  |  |  | 90.6% | 86.6% | 62.9% | 29.5% | 19% | 14.4% | 2270 nM | at least 10 × | 48.0486 | 43.2962 | 41.8711 | 36.8821 |
